Where two headings read alike, the source gives them in different places. Where no end group is shown, it is not given here.
Assays:
C. albicans 10231 = assay type: cell-based; conditions: 10231
Experimental: (§1) The MIC and IC50 values were determined by a broth microdilution method according to guidelines of the National Committee for Clinical Laboratory Standard as follows: In 96-well tissue culture plates, a fixed volume of bacterial suspension in 2× broth (as defined below) was added to the mixtures or individual compounds dispensed at concentrations varying from 1,000 to 1 μg/ml derived from serial two-fold dilutions in sterile water. The bacteria tested were P. aeruginosa American Type Culture Collection Number (ATCC) 10145, E. coli ATCC 2592, and S. aureus (methicillin reseistant) ATTC 33591.
(§2) The plates were incubated overnight, and the relative percent growth determined by optical density at 620 nm (OD620) using a TITERTEK MULTISKAN PLUS™. […] IC50 values were calculated using a sigmoidal curve fitting software program (GRAPHPAD,™ ISI Software,™ San Diego, Calif.). All samples were tested in duplicate and each assay was repeated at least twice. In the following table, KFAK is the repeat unit and multimers of KFAK were tested. IC50 and MIC are reported in μg/ml.
(§3) Because the antibacterial activity of the periodic peptides was so promising, further experiments were performed to determine if the periodic peptides also had antifungal activity. The experimental design was similar to that above, with accommodation made for fungal growth requirements, including the use of Sabouraud Dextrose Broth (SDB) and Sabouraud Dextrose Agar (SDA) slants.

Cr. Neoformans 32045 = assay type: cell-based
Experimental: as §1, §2, §3

HeLa cell line = assay: HeLa MTS cellular reduction toxicity assay; assay type: cell-based; conditions: for TX50: 24 h, MTS
Experimental: The RBC protocol was from Blondelle (2000) and is described generally as follows: The toxicity toward the HeLa cell line was determined using a MTS (3-(4-5-dimethylthiazol-2-yl)-5-(3carboxymethoxyphenyl)-2-(4-sulfophenyl)-2H-tetrazolium, sodium salt) cellular reduction assay. MTS (2 mg/mL) was prepared in Dulbecco PBS (pH 7.35), filtered, aliquoted and stored at minus 20° C. In 96 well flat bottomed plates, cell suspensions (250 μL of 6×10^4 cell/mL in each well) were incubated for 48 h at 37° C. (5% CO2 incubator). The peptides (50 μL) were then added to the cell monolayer (following aspiration of the media from each well and addition of 50 μL of Dulbecco's Modified Eagles Medium) at varying concentrations derived from serial 2-fold dilutions, and the plates incubated for 24 h at 37° C. (5% CO2 incubator). Proliferation was then determined by adding a solution of phenazine methosulfate (PMS: 0.92 mg/mL in DPBS) to MTS at a 1:20 ration just prior to the assay. Twenty microliters MTS-PMS solution were added to each well and the plates incubated for 1 h at 37° C. (5% CO2 incubator). The relative percent toxicity was determined by comparing the absorbance at 490 nm of each peptide to the absorbance of cells without peptide. The TX50 (concentration required for 50% toxicity) was calculated using a sigmoidal curve fitting software (Graphpad Prism).

Red blood cells (RBC) = assay: Red blood cell toxicity; assay type: cell-based
Red blood cell toxicity = assay type: cell-based; conditions: red blood cells (RBC)
[1] = test system: S. aureus (methicillin resistant) ATCC 33591; conditions: ATCC 33591
Experimental: (§4) The bacteria tested were P. aeruginosa American Type Culture Collection Number (ATCC) 10145, E. coli ATCC 2592, and S. aureus (methicillin reseistant) ATTC 33591.
(§5) All experiments were compared to bacterial growth under optimal growth conditions (37° C., pH 7.0, absence of additional salt, growth media—referred to as standard growth conditions). In each plate, no growth control (media alone), positive growth control (bacteria with no test sample), positive antimicrobial controls (agents with known antimicrobial activity) and test compounds were tested.
(§6) The plates were incubated overnight, and the relative percent growth determined by optical density at 620 nm (OD620) using a […] […] PLUS™. […] All samples were tested in duplicate and each assay was repeated at least twice. […] IC50 and MIC are reported in μg/ml.

P. aeruginosa ATCC 10145 = conditions: ATCC 10145
Experimental: as §4, §5, §6

E. coli ATCC 2592 = conditions: ATCC 2592
Experimental: as §4, §5, §6

Staph. aureus ATCC 6538 = assay: HMARQ biocidal kill activity; assay type: cell-based; conditions: Staph. aureus ATCC 6538 (gram+)
Experimental: (§7) Biocide efficacy protocols were improved by reducing sample size, organizing the test material into an array format, implementing most probable number (MPN) quantitation and using multi-channel liquid handling equipment. We call the new method “high-throughput microanalysis and rapid quantitation” or “HMARQ.” HMARQ is directly applicable to current industrial efficacy tests such as multi-cycle preservation challenge or time course disinfection tests.
(§8) HMARQ is performed in a high throughput plate, such as 96-well microtiter plates. Typical sample volumes have been reduced down to 200 to 300 μL, but can be reduced further if desired. In these samples, no more than 10% of the total volume will be composed of the biocide and organism solution, and all non-matrix additions are normalized for all samples.
(§9) The sample matrix is first inoculated with the desired concentration of microorganisms. Inoculated sample matrix is then added to the 96-well assay block containing the biocide(s) under study. Each sample block contains biocide treated samples and untreated control samples (lacking biocide). Once the samples are prepared, the entire block of samples is mixed by vortexing until each sample is homogenous. In general, the study starts once mixing is complete, and samples are removed as required for the analysis. When Kill Time testing (rate of biocide activity) is performed, the microorganisms are added after biocide addition to the samples, allowing for rapid mixing and analysis.
(§10) Bacterial concentration (CFU/mL) is determined using the most probable number method (MPN). The contaminated solution is serially diluted until the “no growth” endpoint is reached. The endpoint represents the MPN and is expressed in units of the bacterial concentration. A serial 1:10 dilution will yield a bacterial concentration resolution of 1 log and the log reduction is determined by comparing the concentration of organisms in a treated sample to the concentration of organisms in untreated samples. For example, if a sample requires four 1:10 dilutions before bacterial growth is lost then the MPN for bacterial concentration in the sample is less than or equal to 1×10^4 CFU/mL (1E4). […] This method of enumeration is generally applicable to all non-filamentous microorganisms.
(§11) Media included Tryptic Soy Broth (TSB) for bacteria and Sabouraud Dextrose Broth (SDB) for fungi. These are available commercially and prepared according to the manufacturers instructions. Indicator medium was TSB/R for bacteria and SDB/R for fungi. These were made by addition of 50 μM filter sterilized Resazurin to the sterilized and cooled medium. Tryptic Soy agar plates (TSA) and SDA slants were used to provide inoculant for bacterial and fungal cultures. The indicator dye appeared pink or white when bacterial growth was present.
(§12) Using the HMARQ test described above, periodic peptides were generated and tested for Kill Activity. In this experiment, a broader range of peptidezs were tested for activity. Units are expressed as ppm (μg/mL) needed for 3.5 log kill at 15 min or 24 hour and the results are shown below.

P. aeruginosa ATCC 15442 = assay: HMARQ biocidal kill activity; assay type: cell-based; conditions: P. aeruginosa ATCC 15442 (gram−)
Experimental: as §7, §8, §9, §10, §11, §12

[2] = RBCs, concentration required for 50% toxicity, read-out: TX50

Row | Substance | IC50 (C. albicans 10231) | MIC (C. albicans 10231) | IC50 (Cr. Neoformans 32045) | MIC (Cr. Neoformans 32045) | % kill at 500 μg/ml (HeLa cell line) | TX50 (HeLa cell line) | % kill at 250 μg/ml (Red blood cells (RBC)) | HC50 at 24 h (Red blood cell toxicity; [2]) | IC50 [1] | MIC [1] | IC50 (P. aeruginosa ATCC 10145) | MIC (P. aeruginosa ATCC 10145) | IC50 (E. coli ATCC 2592) | MIC (E. coli ATCC 2592) | ppm needed for 3.5 log kill at 15 min (Staph. aureus ATCC 6538) | ppm needed for 3.5 log kill at 24 hr (Staph. aureus ATCC 6538) | ppm needed for 3.5 log kill at 15 min (P. aeruginosa ATCC 15442) | ppm needed for 3.5 log kill at 24 hr (P. aeruginosa ATCC 15442) | HC50 at 24 h (Red blood cell toxicity)
1 | FKAFKAFKAFKAFKAFKA [FKA (6), FKA FKA FKA FKA FKA FKA] | 208 µg/mL | 250 to 500 µg/mL | 2.8 µg/mL | 4 to 8 µg/mL | 110.8% | >500 µg/mL | 28% | 496 µg/mL | >500 µg/mL | >500 µg/mL | 79 µg/mL | 100 µg/mL | 29 µg/mL | 32 to 62 µg/mL | 4 ppm | 500 ppm | 8 ppm | 8 ppm | 
2 | FKAFKAFKAFKAFKAFKAFKA [FKA (7), FKA FKA FKA FKA FKA FKA FKA] | 203 µg/mL | 250 to 500 µg/mL | 3.2 µg/mL | 4 to 8 µg/mL | 103.3% | >500 µg/mL | 11% | > 500 µg/mL | >500 µg/mL | >500 µg/mL | 23 µg/mL | 32 µg/mL | 7 µg/mL | 16 to 32 µg/mL | 500 ppm | 500 ppm | 125 ppm | 63 ppm | 
3 | H-FAKKFAKKFAKKFAKKFAKKFAKK-OH [FAKK (6), FAKK FAKK FAKK FAKK FAKK FAKK] | 110 µg/mL | 125 to 250 µg/mL | 7.6 µg/mL | 16 to 32 µg/mL | 28.3% | 359 µg/mL | 7% |  | 108 µg/mL | >250 µg/mL | 21 µg/mL | 62 µg/mL | 11 µg/mL | 17 to 32 µg/mL | >500 ppm | 250 ppm | >500 ppm | 16 ppm | > 500 µg/mL
4 | H-FKAFKAFKAFKAFKAFKAFKAFKA-OH [FKA (8), FKA FKA FKA FKA FKA FKA FKA FKA] | 199 µg/mL | 250 to 500 µg/mL | 3.9 µg/mL | 16 to 32 µg/mL | 60.4% | >500 µg/mL | 10% | > 500 µg/mL | 74 µg/mL | >500 µg/mL | 19 µg/mL | 25 µg/mL | 7 µg/mL | 16 to 32 µg/mL | 8 ppm | 125 ppm | 125 ppm | 16 ppm | 
5 | H-FKAFKAFKAFKAFKAFKAFKAFKAFKA-OH [FKA (9), FKA FKA FKA FKA FKA FKA FKA FKA FKA] | 195 µg/mL | 250 to 500 µg/mL | 16 µg/mL | 62 to 125 µg/mL | 20.9% | 389 µg/mL | 24% | > 500 µg/mL | 17 µg/mL | 31 to 62 µg/mL | 16 µg/mL | 20 µg/mL | 4 µg/mL | 31 to 62 µg/mL | 8 ppm | 125 ppm | 4 ppm | 4 ppm | 
6 | H-FKAFKAFKAFKAFKAFKAFKAFKAFKAFKA-OH [FKA (10), FKA FKA FKA FKA FKA FKA FKA FKA FKA FKA] | 182 µg/mL | 250 to 500 µg/mL | 20 µg/mL | 32 to 62 µg/mL | 15.0% | 234 µg/mL | 51% | > 500 µg/mL | 12 µg/mL | 31 to 62 µg/mL | 27 µg/mL | 32 µg/mL | 9 µg/mL | 31 to 62 µg/mL | 8 ppm | 8 ppm | 8 ppm | 16 ppm | 
7 | H-KFAKKFAKKFAKKFAKKFAKKFAKKFAKKFAK-OH [KFAK (8), KFAK KFAK KFAK KFAK KFAK KFAK KFAK KFAK] | 105 µg/mL | 125 to 250 µg/mL | 4.1 µg/mL | 8 to 16 µg/mL | 18.2% | 249 µg/mL | 48% |  | 40 µg/mL | 125 to 250 µg/mL | 19 µg/mL | 20 µg/mL | 12 µg/mL | 16 to 32 µg/mL | >500 ppm | 8 ppm | 31 ppm | 31 ppm | > 500 µg/mL
